Results reported in patent US11903987B2, “Artificial compositions comprising corosolic acid, oleanolic acid; and ursolic acid in a form of an emulsion, salve, ointment, suspension, or gel” (National Guard Health Affairs, priority 2018, dated 2024).

What was measured:
[1] = skin tolerability on tested subjects after topical application; type: in vivo, human
human skin warts = test: topical treatment of human skin warts; type: in vivo; conditions: topical application
Description: Initial steps involved extracting Tecoma stans leaves with methanol or ethanol alcohol. Then, the extract was obtained via evaporating the alcohol and re-suspending the dry matter in pure DMSO (dimethylsulphoxide) at a concentration of 20 mg/mL DMSO. […] As disclosed herein, 14 compounds have been isolated from dry leaves of Tecoma stans, four of which are known for their antidiabetic effect and ability to reduce the glycemic index. After identifying the 14 compounds in the methanolic extract from the dry leaves, each compound was independently tested on human skin warts. […] Therefore, corosolic acid was mixed with its two related compounds, namely oleanolic acid (FIG. 1E) and ursolic acid (FIG. 1F), isolated from the same extract. Compositions containing a mixture of these three compounds were prepared by mixing the compounds in an ointment at a concentration of 1 mg/gm of each compound per a total weight of the ointment, emulsifying the compounds in a lotion base at a concentration of 0.1 mg/mL of each compound per a total volume of the lotion, or suspending three compounds together in DMSO at a concentration of 1 mg/mL of each compound per a total volume of DMSO. The compositions were applied topically twice a day to the desired skin area as indicated in each case (see FIGS. 3[…]).

Row | SMILES | harmlessness on humans / skin irritation [1] | curing effect on skin warts (human skin warts)
1 | C[C@H]1[C@H](C)CC[C@]2(C(=O)O)CC[C@]3(C)C(=CC[C@@H]4[C@@]5(C)C[C@@H](O)[C@H](O)C(C)(C)[C@@H]5CC[C@]43C)[C@H]12 [corosolic acid, (2α,3β)-2,3-dihydroxyurs-12-en-28-oic acid] | harmless on humans, and cause no skin irritations | minor curing effect
2 | CC1(C)CC[C@]2(C(=O)O)CC[C@]3(C)C(=CC[C@@H]4[C@@]5(C)CC[C@H](O)C(C)(C)[C@@H]5CC[C@]43C)[C@@H]2C1 [oleanolic acid] | harmless on humans, and cause no skin irritations | –
3 | C[C@H]1[C@H](C)CC[C@]2(C(=O)O)CC[C@]3(C)C(=CC[C@@H]4[C@@]5(C)CC[C@H](O)C(C)(C)[C@@H]5CC[C@]43C)[C@H]12 [ursolic acid, 3β-Hydroxy-12-ursen-28-ic acid] | harmless on humans, and cause no skin irritations | –
